Measurements reported in patent US7914821B2, “Pharmaceutical composition for prevention and/or treatment of bone loss” (KO DA Pharmaceuticals Co., Ltd., priority 2008, dated 2011).

How the values were obtained:
[1] = system: Bone cells; experiment: Cell viability (MTT); type: cell-based, rat; details: 0.3, 1, 3, 10 μM, 48 hrs, FIG. 7A
Method: (§1) Rat primary osteoblast was isolated from the parietal bone of gestation day 18 embryos of Sprague-Dawley rats. After being slaughtered, the embryo rats were obtained from the uteruses of the rats, and calvarium was isolated from the embryo rats. Parietal bone was cut from the calvarium and digested by 0.1% collagenase for 20 minutes to release the bone cells from the bone tissue. The digestion step was repeated five times. The collected bone cells were cultured in α-MEM containing 1% penicillin-streptomycin and 10% FBS in a humidified atmosphere of 5 percent carbon dioxide. When cells were attached and confluence, they were sub-cultured, which was called “passage 2 (P2)”. The passage was for analogizing. 2 to 5 passage cells were used for the experiments.
Bone cells were cultured in 96-well plate and treated with 0.3, 1, 3, and 10 μM of imperatorin and bergapten for 48 hrs, respectively. After treatment, the cells were reacted with MTT solution (0.5 mg/ml) at 37° C. for 30 minutes, lysed in 100 μl DMSO, and then absorbance was measured at […]. The cell viability in the control group which was treated with 0.1% DMSO was defined as 100%.

[2] = system: Bone cells; experiment: Collagen secretion in bone cells; type: cell-based, rat; details: for collagen secretion in the bone cells: 0.3, 1, 3, 10 μM, FIG. 8B; for increase of collagen content / collagen synthesis: 'at least' figure
Method: as §1
Bone cells were treated with 0.3, 1, 3, and 10 μM of imperatorin and bergapten, respectively. After treatment, the cells were lysed in 6N HCl at 116° C. for 16 hrs, and dried in a vacuum. The resultant residue was dissolved in an equal volume of water, and then absorbance was measured at […]. The collagen secretion in the control group which was treated with 0.1% DMSO was defined as 100%. Referring to FIG. 8B, imperatorin and bergapten both increased the collagen secretion in the bone cells

[3] = system: SMADs; experiment: Phosphorylation of SMADs (western blot); type: cell-based, rat; details: 10 μM, 1, 3, 6, 12, 24 hrs; FIG. 10
Method: as §1
(§2) Bone cells was cultured in 6-well plate and treated with 10 μM of imperatorin and bergapten for 1, 3, 6, 12, and 24 hrs, respectively. […] Following incubation with the secondary antibody, the membrane was washed three times with PBST, and detected by an […] chemiluminescence using an ECL blotting substrate according to the manufacturer's instructions. […]

[4] = system: p38; experiment: Phosphorylation of p38 (western blot); type: cell-based, rat; details: 10 μM, 1, 3, 6, 12, 24 hrs; FIG. 10
Method: as §1, §2

[5] = system: p38 mutant cell (DN-p38); experiment: ALP activity in p38 mutant cell; type: cell-based; details: 10 μM; FIG. 11D
Method: Bone cells were cultured and treated with (1) 10 μM SB203580, (2) 10 μM PD98059, (3) 10 μM imperatori, (4) 10 μM bergapten, (5) 10 μM imperatorin+SB203580, (6) 10 μM bergapten+SB203580, (7) 10 μM imperatorin+PD98059 ? (8) 10 μM bergapten+PD98059 for 48 hrs. After treatment, the bone cells were lysed in 0.2% […] solution and centrifuged at 1500×g for 5 minutes. The supernatant was analyzed by an ALP kit such as described above to obtain the ALP activity. The ALP activity in the control group which was treated with 0.1% DMSO was defined as 100%. Referring to FIG. 11C, p38 inhibitor (SB203580) and ERK inhibitor (PD98059) suppressed the imperatorin and bergapten induced-ALP activity.
The same procedure carried out in Example 20 was repeated. The experiment group used alternative cells and treatment comprising: (1) DN-p38 cell, (2) DN-ERK cell, (3) DN-p38 cell+10 μM imperatorin, (4) DN-p38 cell+10 μM bergapten, (5) DN-ERK cell+10 μM imperatorin, (6) DN-ERK cell+10 μM bergapten, (7) normal bone cell+10 μM imperatorin, and (8) normal bone cell+10 μM bergapten. The ALP activity in the control group which was treated with 0.1% DMSO was defined as 100%. Referring to FIG. 11D, the ALP activity was not induced in p38 mutant cell (DN-p38) and ERK mutant cell (DN-ERK) by imperatorin and bergapten.

[6] = system: Male Sprague-Dawley rats; experiment: Animal experiment: local administration into the tibia; type: in vivo, rat; details: for bone volume of tibia metaphysis / BMC / BMD / BV/TV (bone volume/tissue volume): 30 μM every day for a week through needle into tibia; for bone volume of tibia metaphysis: FIG. 12; for increase of bone mineral content / increase of bone mineral density: 'at least' figure, matches Table 3 vs control; for BMC / BMD / BV/TV (bone volume/tissue volume): tibia
Method: Male Sprague-Dawley rats (weighing 78 to 90 grams, at three weeks of age) were anesthetized with […] of trichloroacetaldehyde monohydrate. […] needle was sterilized and injected into the tibia of the rats. One day after the injection, the rats were administered with normal saline as the control, 30 μM imperatorin, and 30 μM bergapten every day for a week through the needle, respectively. Then, the rats were slaughtered after the last administration, and the tibias were immediately isolated after slaughtering and subject to BMD, BMC, and histochemical examination. Referring to FIG. 12, the bone volume of tibia metaphysis was increased by imperatorin and bergapten.

SMILES	cell viability [1]	collagen secretion in the bone cells [2]	increase of collagen content / collagen synthesis [2]	phosphorylation of SMADs [3]	phosphorylation of p38 [4]	ALP activity in p38 mutant cell (DN-p38) [5]	bone volume of tibia metaphysis [6]	increase of bone mineral content [6] [%]	increase of bone mineral density [6]	BMC [6] [g]	BMD [6] [g/mL]	BV/TV (bone volume/tissue volume) [6] [%]
COc1c2ccoc2cc2oc(=O)ccc12 [bergapten]	did not suppress	increased	at least 100%	induced	induced	not induced	increased	≥ 33.7	at least 12.2%	0.111 ± 0.003	0.101 ± 0.002	18.1 ± 0.4
CC(C)=CCOc1c2occc2cc2ccc(=O)oc12 [imperatorin]	–	increased	at least 102.0%	induced	induced	not induced	increased	≥ 28.91	at least 12.22%	0.107 ± 0.003	0.101 ± 0.002	17.6 ± 0.6
